According to PubChem BioAssay AID1745844 (Carcinogenic Potency Database (CPDB), 2022):

Tested on: rodent lifetime carcinogenesis bioassay, tumor incidence TD50
Experiment: carcinogenic potency in animals, long-term in vivo studies, CPDB compilation (AID 1745844)
Conditions: by gavage

In the case of `ClCC(Cl)CCl`, the TD50 (mouse, strain B6C3F1, females, site: Harderian gland, lesion: adenoma + adenoma, bilateral, dosed 88 weeks, study length 104 weeks) is reported as 7.05 mg/kg/day, the TD50 (mouse, strain B6C3F1, females, site: all sites, lesion: histiocytic sarcoma + malignant lymphoma, histiocytic type + malignant lymphoma, mixed type + malignant lymphoma, lymphocytic, dosed 88 weeks, study length 104 weeks) is reported as 8.64 mg/kg/day and the TD50 (mouse, strain B6C3F1, females, site: all sites, lesion: malignant lymphoma, histiocytic type + malignant lymphoma, mixed type + malignant lymphoma, lymphocytic type + malignant lymph, dosed 88 weeks, study length 104 weeks) is reported as 7.08 mg/kg/day. The TD50 (mouse, strain B6C3F1, females, site: any site (literature study), lesion: several types, types named in the paper, dosed 88 weeks, study length 104 weeks) was 0.806 mg/kg/day, the TD50 (mouse, strain B6C3F1, females, site: forestomach + Harderian gland + liver + palate + pharynx + uterus, lesion: squamous-cell carcinoma + squamous-cell papilloma + adenoma + adenoma, bilateral + hepatocellular adenoma + hepatocellular carcino, dosed 88 weeks, study length 104 weeks) was 0.826 mg/kg/day and the TD50 (mouse, strain B6C3F1, females, site: forestomach, lesion: squamous-cell carcinoma + squamous-cell papilloma, dosed 88 weeks, study length 104 weeks) was 0.828 mg/kg/day. It also gave a TD50 (mouse, strain B6C3F1, females, site: forestomach, lesion: squamous-cell carcinoma, dosed 88 weeks, study length 104 weeks) of 0.97 mg/kg/day, a TD50 (mouse, strain B6C3F1, females, site: forestomach, lesion: squamous-cell papilloma, dosed 88 weeks, study length 104 weeks) of 1.64 mg/kg/day and a TD50 (mouse, strain B6C3F1, females, site: liver, lesion: hepatocellular adenoma + hepatoblastoma + hepatocellular carcinoma, dosed 88 weeks, study length 104 weeks) of 2.93 mg/kg/day. The TD50 (mouse, strain B6C3F1, females, site: liver, lesion: hepatocellular adenoma + hepatocellular carcinoma, dosed 88 weeks, study length 104 weeks) was 2.93 mg/kg/day, the TD50 (mouse, strain B6C3F1, females, site: liver, lesion: hepatocellular adenoma, dosed 88 weeks, study length 104 weeks) was 3.33 mg/kg/day and the TD50 (mouse, strain B6C3F1, females, site: liver, lesion: hepatocellular carcinoma, dosed 88 weeks, study length 104 weeks) was 28.7 mg/kg/day. It also gave a TD50 (mouse, strain B6C3F1, females, site: lung, lesion: alveolar/bronchiolar adenoma + alveolar/bronchiolar carcinoma, dosed 88 weeks, study length 104 weeks) of 14.3 mg/kg/day, a TD50 (mouse, strain B6C3F1, females, site: lung, lesion: alveolar/bronchiolar adenoma, dosed 88 weeks, study length 104 weeks) of 14.6 mg/kg/day and a TD50 (mouse, strain B6C3F1, females, site: palate + pharynx + tongue, lesion: squamous-cell carcinoma + squamous-cell papilloma, dosed 88 weeks, study length 104 weeks) of 47 mg/kg/day. The TD50 (mouse, strain B6C3F1, females, site: palate + pharynx, lesion: squamous-cell carcinoma, dosed 88 weeks, study length 104 weeks) was 154 mg/kg/day, the TD50 (mouse, strain B6C3F1, females, site: uterus, lesion: endometrial stromal polyp, dosed 88 weeks, study length 104 weeks) was 22.9 mg/kg/day and the TD50 (mouse, strain B6C3F1, females, site: uterus, lesion: endometrium, adenocarcinoma, dosed 88 weeks, study length 104 weeks) was 8.47 mg/kg/day. The TD50 (mouse, strain B6C3F1, females, site: uterus, lesion: endometrium, adenoma + endometrium, adenocarcinoma, dosed 88 weeks, study length 104 weeks) was 6.62 mg/kg/day, the TD50 (mouse, strain B6C3F1, females, site: uterus, lesion: endometrium, adenoma, dosed 88 weeks, study length 104 weeks) was 34.9 mg/kg/day and the TD50 (mouse, strain B6C3F1, males, site: Harderian gland, lesion: adenoma, dosed 90 weeks, study length 104 weeks) was 13.7 mg/kg/day. It also gave a TD50 (mouse, strain B6C3F1, males, site: any site (literature study), lesion: several types, types named in the paper, dosed 90 weeks, study length 104 weeks) of 1.06 mg/kg/day, a TD50 (mouse, strain B6C3F1, males, site: forestomach + Harderian gland + liver, lesion: squamous-cell carcinoma + squamous-cell papilloma + adenoma + hepatocellular adenoma + hepatocellular carcinoma, dosed 90 weeks, study length 104 weeks) of 0.996 mg/kg/day and a TD50 (mouse, strain B6C3F1, males, site: forestomach, lesion: squamous-cell carcinoma + squamous-cell papilloma, dosed 90 weeks, study length 104 weeks) of 0.928 mg/kg/day. For the same compound, the TD50 (mouse, strain B6C3F1, males, site: forestomach, lesion: squamous-cell carcinoma, dosed 90 weeks, study length 104 weeks) was 1.34 mg/kg/day, the TD50 (mouse, strain B6C3F1, males, site: forestomach, lesion: squamous-cell papilloma, dosed 90 weeks, study length 104 weeks) was 1.63 mg/kg/day and the TD50 (mouse, strain B6C3F1, males, site: liver, lesion: hepatocellular adenoma + hepatoblastoma + hepatocellular carcinoma, dosed 90 weeks, study length 104 weeks) was 2.13 mg/kg/day. It also gave a TD50 (mouse, strain B6C3F1, males, site: liver, lesion: hepatocellular adenoma + hepatocellular carcinoma, dosed 90 weeks, study length 104 weeks) of 2.13 mg/kg/day, a TD50 (mouse, strain B6C3F1, males, site: liver, lesion: hepatocellular adenoma, dosed 90 weeks, study length 104 weeks) of 2.87 mg/kg/day and a TD50 (mouse, strain B6C3F1, males, site: liver, lesion: hepatocellular carcinoma, dosed 90 weeks, study length 104 weeks) of 6.28 mg/kg/day. It also gave a TD50 (mouse, strain B6C3F1, males, site: lung, lesion: alveolar/bronchiolar adenoma + alveolar/bronchiolar carcinoma, dosed 90 weeks, study length 104 weeks) of 9.32 mg/kg/day, a TD50 (mouse, strain B6C3F1, males, site: lung, lesion: alveolar/bronchiolar adenoma, dosed 90 weeks, study length 104 weeks) of 11.2 mg/kg/day and a TD50 (mouse, strain B6C3F1, males, site: tongue, lesion: squamous-cell papilloma, dosed 90 weeks, study length 104 weeks) of 454 mg/kg/day. The TD50 (rat, strain Fischer 344, females, site: Zymbal's gland, lesion: carcinoma, dosed 91 weeks, study length 105 weeks) was 59 mg/kg/day, the TD50 (rat, strain Fischer 344, females, site: all sites, lesion: mononuclear-cell leukemia, dosed 91 weeks, study length 105 weeks) was 7.11 mg/kg/day and the TD50 (rat, strain Fischer 344, females, site: any site (literature study), lesion: several types, types named in the paper, dosed 91 weeks, study length 105 weeks) was 1.02 mg/kg/day. It also gave a TD50 (rat, strain Fischer 344, females, site: clitoral gland + forestomach + mammary gland + palate + pharynx + tongue + Zymbal's gland, lesion: adenoma + adenoma, bilateral + carcinoma + carcinoma, bilateral + squamous-cell carcinoma + squamous-cell papilloma + adenocarcinoma, dosed 91 weeks, study length 105 weeks) of 1.07 mg/kg/day, a TD50 (rat, strain Fischer 344, females, site: clitoral gland, lesion: adenoma + adenoma, bilateral + carcinoma + carcinoma, bilateral, dosed 91 weeks, study length 105 weeks) of 3.58 mg/kg/day and a TD50 (rat, strain Fischer 344, females, site: clitoral gland, lesion: adenoma + adenoma, bilateral, dosed 91 weeks, study length 105 weeks) of 4.04 mg/kg/day. For the same compound, the TD50 (rat, strain Fischer 344, females, site: clitoral gland, lesion: carcinoma + carcinoma, bilateral, dosed 91 weeks, study length 105 weeks) was 49.5 mg/kg/day, the TD50 (rat, strain Fischer 344, females, site: colon + jejunum, lesion: adenocarcinoma, dosed 91 weeks, study length 105 weeks) was 78.4 mg/kg/day and the TD50 (rat, strain Fischer 344, females, site: forestomach, lesion: squamous-cell carcinoma + squamous-cell papilloma, dosed 91 weeks, study length 105 weeks) was 1.64 mg/kg/day. It also gave a TD50 (rat, strain Fischer 344, females, site: forestomach, lesion: squamous-cell carcinoma, dosed 91 weeks, study length 105 weeks) of 7.77 mg/kg/day, a TD50 (rat, strain Fischer 344, females, site: forestomach, lesion: squamous-cell papilloma, dosed 91 weeks, study length 105 weeks) of 1.94 mg/kg/day and a TD50 (rat, strain Fischer 344, females, site: liver, lesion: hepatocellular adenoma + hepatoblastoma + hepatocellular carcinoma, dosed 91 weeks, study length 105 weeks) of 81.4 mg/kg/day. The TD50 (rat, strain Fischer 344, females, site: mammary gland, lesion: adenocarcinoma + adenoma + fibroadenoma, dosed 91 weeks, study length 105 weeks) was 1.98 mg/kg/day, the TD50 (rat, strain Fischer 344, females, site: mammary gland, lesion: adenocarcinoma + adenoma, dosed 91 weeks, study length 105 weeks) was 5.5 mg/kg/day and the TD50 (rat, strain Fischer 344, females, site: mammary gland, lesion: adenocarcinoma, dosed 91 weeks, study length 105 weeks) was 5.91 mg/kg/day. It also gave a TD50 (rat, strain Fischer 344, females, site: mammary gland, lesion: adenoma + fibroadenoma, dosed 91 weeks, study length 105 weeks) of 3.32 mg/kg/day.
